Data: PMC9598282 (Antibiotics, 2022)
Values after ≈ are worked out from the molar mass of the structure shown. Values joined by “and” are separate entries in the source; they are usually repeats but may differ in a detail not shown here. Identical values can stand only once. Bridge positions count the residues as written; N and C are the ends. Square brackets hold non-standard residues; d marks the D form. Peptide text beside a SMILES is read from it. * marks the point of attachment. X1 = CC[C@H](C)CCCCC(=O)*; Dab = NCC[C@H](N)C(=O)O

Assays:
P. aeruginosa 101243 = type: cell-based, Pseudomonas aeruginosa; settings: colistin-resistant isolate
Method: (§1) For the preparation of the bacterial solution, overnight grown culture was diluted in 0.85% saline solution, adjusted to 0.5 McFarland turbidity and further diluted in Mueller–Hinton broth for inoculation to a final concentration of 5 × 10^5 colony forming units/mL (CFU/mL). The agents were serially diluted two-fold in a 96-well plate, and equal volumes of bacterial solution were subsequently added to the designated wells. The well consisting of bacterial solution served as the positive control, while the well containing only media served as the negative control. The plate was then incubated at 37 °C for 18 h. After incubation, an Emax Plus microplate reader (Molecular Devices, Union City, CA, USA) was used to measure the optical density (OD) at a wavelength of 590 nm to confirm the turbidity. The antibacterial activity corresponded to the MIC, which is defined as the lowest concentration of the agent necessary to inhibit visible bacterial growth.

P. aeruginosa 114228 = type: cell-based, Pseudomonas aeruginosa; settings: colistin-resistant isolate
Method: as §1

P. aeruginosa P259-96918 = type: cell-based, Pseudomonas aeruginosa; settings: colistin-susceptible MDR isolate
Method: as §1

[1] = system: P. aeruginosa P262-101856; type: cell-based, Pseudomonas aeruginosa; settings: colistin-susceptible MDR isolate
Method: as §1

[2] = system: P. aeruginosa P264-104354; type: cell-based, Pseudomonas aeruginosa; settings: colistin-susceptible MDR isolate
Method: as §1

A. baumannii 110193 = type: cell-based, Acinetobacter baumannii; settings: colistin-susceptible MDR isolate
Method: as §1

A. baumannii 92247 = type: cell-based, Acinetobacter baumannii; settings: colistin-resistant isolate
Method: as §1

A. baumannii AB027 = type: cell-based, Acinetobacter baumannii; settings: colistin-susceptible MDR isolate
Method: as §1

A. baumannii AB031 = type: cell-based, Acinetobacter baumannii; settings: colistin-susceptible MDR isolate
Method: as §1

A. baumannii ATCC 17978 [3] = type: cell-based, Acinetobacter baumannii; settings: wild-type
Method: as §1

A. baumannii LAC-4 = type: cell-based, Acinetobacter baumannii; settings: colistin-susceptible MDR isolate
Method: as §1

E. coli 107115 = type: cell-based, Escherichia coli; settings: colistin-susceptible MDR isolate
Method: as §1

E. coli 94393 = type: cell-based, Escherichia coli; settings: colistin-resistant isolate
Method: as §1

E. coli 94474 = type: cell-based, Escherichia coli; settings: colistin-resistant isolate
Method: as §1

E. cloacae 118564 = type: cell-based, Enterobacter cloacae; settings: colistin-resistant isolate
Method: as §1

E. cloacae 121187 = type: cell-based, Enterobacter cloacae; settings: colistin-resistant isolate
Method: as §1

K. pneumoniae 113250 = type: cell-based, Klebsiella pneumoniae; settings: colistin-resistant isolate
Method: as §1

K. pneumoniae 113254 = type: cell-based, Klebsiella pneumoniae; settings: colistin-resistant isolate
Method: as §1

P. aeruginosa PA 107092 = experiment: MIC, broth microdilution; type: cell-based, Pseudomonas aeruginosa; settings: β-lactamase harboring isolate
Method: as §1

P. aeruginosa PA 108590 = experiment: MIC, broth microdilution; type: cell-based, Pseudomonas aeruginosa; settings: β-lactamase harboring isolate
Method: as §1

P. aeruginosa PA 109084 = experiment: MIC, broth microdilution; type: cell-based, Pseudomonas aeruginosa; settings: β-lactamase harboring isolate
Method: as §1

P. aeruginosa PA 86052 = experiment: MIC, broth microdilution; type: cell-based, Pseudomonas aeruginosa; settings: β-lactamase harboring isolate
Method: as §1

P. aeruginosa PA 88949 = experiment: MIC, broth microdilution; type: cell-based, Pseudomonas aeruginosa; settings: β-lactamase harboring isolate
Method: as §1

P. aeruginosa PAO1 = experiment: microbe, parasite or virus in culture; type: cell-based, Pseudomonas aeruginosa
Outline: (§2)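 Antibiotic and guanidinylated polymyxin adjuvant were two-fold serially diluted across perpendicular axes, combined with bacterial suspension and incubated 18 h at 37 °C. Turbidity was read as OD590. FIC index is the sum of each agent's MIC in combination divided by its MIC alone: ≤0.5 synergy, 0.5–4 additivity, >4 antagonism.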

A. baumannii ATCC 17978 [4] = experiment: microbe, parasite or virus in culture; type: cell-based, Acinetobacter baumannii
Outline: as §2

E. coli ATCC 25922 = experiment: microbe, parasite or virus in culture; type: cell-based, Escherichia coli
Outline: as §2

[5] = agent alone, one value per checkerboard plate

With `CC[C@H](C)CCCCC(=O)N[C@@H](CCN)C(=O)N[C@H](C(=O)N[C@@H](CCN)C(=O)N[C@H]1CCNC(=O)[C@H]([C@@H](C)O)NC(=O)[C@H](CCN)NC(=O)[C@H](CCN)NC(=O)[C@H](CC(C)C)NC(=O)[C@@H](CC(C)C)NC(=O)[C@H](CCN)NC1=O)[C@@H](C)O` [Colistin, colistin] (X1-[Dab]T[Dab][Dab][Dab][dL]L[Dab][Dab]T; lactam 4-C (inferred); N-terminus assumed) the MIC (P. aeruginosa 101243) was 1024 µg/mL (≈ 876 µM), the MIC (P. aeruginosa 114228) was 4 µg/mL (≈ 3.42 µM) and the MIC (P. aeruginosa P259-96918) was 0.5 µg/mL (≈ 0.428 µM). The MIC [1] was 2 µg/mL (≈ 1.71 µM), the MIC [2] was 1 µg/mL (≈ 0.855 µM) and the MIC (A. baumannii 110193) was 0.5 µg/mL (≈ 0.428 µM). It also gave an MIC (A. baumannii 92247) of 4 µg/mL (≈ 3.42 µM), an MIC (A. baumannii AB027) of 0.25 µg/mL (≈ 0.214 µM) and an MIC (A. baumannii AB031) of 0.25 µg/mL (≈ 0.214 µM). The MIC (A. baumannii ATCC 17978 [3]) was 0.5 µg/mL (≈ 0.428 µM), the MIC (A. baumannii LAC-4) was 0.125 µg/mL (≈ 0.107 µM) and the MIC (E. coli 107115) was 0.125 µg/mL (≈ 0.107 µM). The MIC (E. coli 94393) was 4 µg/mL (≈ 3.42 µM), the MIC (E. coli 94474) was 16 µg/mL (≈ 13.7 µM) and the MIC (E. cloacae 118564) was >128 µg/mL. The MIC (E. cloacae 121187) was >128 µg/mL, the MIC (K. pneumoniae 113250) was 256 µg/mL (≈ 219 µM) and the MIC (K. pneumoniae 113254) was 256 µg/mL (≈ 219 µM). The MIC (P. aeruginosa PA 107092) was 0.5 µg/mL (≈ 0.428 µM), the MIC (P. aeruginosa PA 108590) was 1 µg/mL (≈ 0.855 µM) and the MIC (P. aeruginosa PA 109084) was 0.5 µg/mL (≈ 0.428 µM). The MIC (P. aeruginosa PA 86052) was 1 µg/mL (≈ 0.855 µM), the MIC (P. aeruginosa PA 88949) was 1 µg/mL (≈ 0.855 µM) and the “Absolute MIC of antibiotic at 4 μg/mL GCol” value (P. aeruginosa PAO1) was 0.5 µg/mL. The “Absolute MIC of antibiotic at 4 μg/mL GPMB” value (P. aeruginosa PAO1) was 1 µg/mL, the MIC alone (P. aeruginosa PAO1; [5]) was 0.5 µg/mL and 1 µg/mL and the Fold-potentiation of antibiotic (P. aeruginosa PAO1; at 4 μg/mL GCol) was 1. The Fold-potentiation of antibiotic (P. aeruginosa PAO1; at 4 μg/mL GPMB) was 1, the “Absolute MIC of antibiotic at 2 μg/mL GCol” value (A. baumannii ATCC 17978 [4]) was 0.25 µg/mL and the “FIC index antibiotic + GPMB” value (A. baumannii ATCC 17978 [4]) was 1.016. For the same compound, the MIC alone (A. baumannii ATCC 17978 [4]; [5]) was 0.25 µg/mL, the Fold-potentiation of antibiotic (A. baumannii ATCC 17978 [4]; at 2 μg/mL GCol) was 1 and the Fold-potentiation of antibiotic (A. baumannii ATCC 17978 [4]; at 2 μg/mL GPMB) was 1. The “Absolute MIC of antibiotic at 2 μg/mL GCol” value (E. coli ATCC 25922) was 0.125 µg/mL, the “Absolute MIC of antibiotic at 2 μg/mL GPMB” value (E. coli ATCC 25922) was 0.0313 µg/mL and the “FIC index antibiotic + GCol” value (E. coli ATCC 25922) was 1.016. For the same compound, the “FIC index antibiotic + GPMB” value (E. coli ATCC 25922) was 0.25, the MIC alone (E. coli ATCC 25922; [5]) was 0.125 µg/mL and 0.25 µg/mL and the Fold-potentiation of antibiotic (E. coli ATCC 25922; at 2 μg/mL GCol) was 1. For the same compound, the Fold-potentiation of antibiotic (E. coli ATCC 25922; at 2 μg/mL GPMB) was 8.
